Test results: ChEMBL document CHEMBL1148759, “Isolation, characterization, and biological evaluation of syn and anti diastereomers of [(99m)Tc]technetium depreotide: a somatostatin receptor binding tumor imaging agent” (J Med Chem, 2007)
Where a SMILES comes first, the peptide text is derived from it. [ ]: non-standard residue; d: D form. The star is where a group is joined. X1 = NCCCC[C@H](NC(=O)[C@H](CS)NC(=O)[C@H](CCCCN)NC(=O)[C@@H](N)CNC(=O)C*)C(N)=O; NMeF = CN[C@@H](Cc1ccccc1)C(=O)O; hCys = N[C@@H](CCS)C(=O)O

Assay: Displacement of [125I]somatostatin from SSTR in rat AR42J cells
Assay type: cell-based
Conditions: ar-42j

IC50: 7.4 nM
Structure (SMILES): CC(C)[C@@H]1NC(=O)[C@H](CCCCN)NC(=O)[C@@H](Cc2c[nH]c3ccccc23)NC(=O)[C@H](Cc2ccc(O)cc2)NC(=O)[C@H](Cc2ccccc2)N(C)C(=O)[C@H](CCSCC(=O)NC[C@H](N)C(=O)N[C@@H](CCCCN)C(=O)N[C@@H](CS)C(=O)N[C@@H](CCCCN)C(N)=O)NC1=O [DEPREOTIDE] (cyclo([hCys](X1)[NMeF]Y[dW]KV))
